This is an account of results in article PMC11794477 (Nature Communications, 2025).

The target in test [1] is T1, Discoidin Domain Receptor Tyrosine Kinase 2 (DDR2 N456S) (Homo sapiens, UniProt Q16832, N456S).
T1 sequence (Q16832 22-855 N456S): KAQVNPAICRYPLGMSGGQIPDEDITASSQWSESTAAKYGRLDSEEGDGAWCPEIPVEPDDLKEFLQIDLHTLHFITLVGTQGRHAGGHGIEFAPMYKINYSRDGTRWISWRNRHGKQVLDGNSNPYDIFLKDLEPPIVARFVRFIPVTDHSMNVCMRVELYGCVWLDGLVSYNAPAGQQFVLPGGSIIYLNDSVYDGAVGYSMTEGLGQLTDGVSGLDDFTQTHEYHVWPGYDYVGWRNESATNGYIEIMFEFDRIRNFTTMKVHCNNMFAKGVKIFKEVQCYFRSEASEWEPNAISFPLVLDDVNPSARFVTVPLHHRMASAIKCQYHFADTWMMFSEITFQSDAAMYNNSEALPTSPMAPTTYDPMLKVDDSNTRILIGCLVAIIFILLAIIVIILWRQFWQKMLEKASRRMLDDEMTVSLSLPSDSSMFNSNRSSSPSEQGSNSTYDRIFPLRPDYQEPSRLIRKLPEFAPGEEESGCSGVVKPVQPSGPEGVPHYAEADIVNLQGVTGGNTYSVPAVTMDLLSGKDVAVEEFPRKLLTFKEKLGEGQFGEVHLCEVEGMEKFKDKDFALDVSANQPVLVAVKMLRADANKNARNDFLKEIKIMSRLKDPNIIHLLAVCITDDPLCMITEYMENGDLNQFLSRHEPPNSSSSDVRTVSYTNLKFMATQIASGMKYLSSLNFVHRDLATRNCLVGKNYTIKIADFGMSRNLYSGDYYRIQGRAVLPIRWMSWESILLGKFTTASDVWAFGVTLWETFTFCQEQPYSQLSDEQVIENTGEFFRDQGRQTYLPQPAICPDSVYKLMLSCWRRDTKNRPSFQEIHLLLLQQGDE
Put plainly: SelectScreen kinase profiling at […] CT-179, ATP at Km. It counts as biochemical.

Test [2] addresses T2, OLIG2 (Homo sapiens, UniProt Q13516).
T2 sequence (Q13516 1-323): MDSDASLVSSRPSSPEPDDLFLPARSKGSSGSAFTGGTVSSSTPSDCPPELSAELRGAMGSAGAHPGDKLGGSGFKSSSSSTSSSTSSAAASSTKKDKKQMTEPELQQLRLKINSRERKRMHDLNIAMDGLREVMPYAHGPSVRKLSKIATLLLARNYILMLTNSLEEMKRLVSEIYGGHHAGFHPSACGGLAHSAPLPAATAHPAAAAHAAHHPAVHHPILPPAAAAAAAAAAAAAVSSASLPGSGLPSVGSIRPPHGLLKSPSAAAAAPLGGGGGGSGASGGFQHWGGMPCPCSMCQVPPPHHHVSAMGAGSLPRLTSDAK
The test is classed as cell-based.

Test [3] addresses T3, Fetal Liver Tyrosine Kinase 3 (FLT3) (Homo sapiens, UniProt P36888).
T3 sequence (P36888 27-993): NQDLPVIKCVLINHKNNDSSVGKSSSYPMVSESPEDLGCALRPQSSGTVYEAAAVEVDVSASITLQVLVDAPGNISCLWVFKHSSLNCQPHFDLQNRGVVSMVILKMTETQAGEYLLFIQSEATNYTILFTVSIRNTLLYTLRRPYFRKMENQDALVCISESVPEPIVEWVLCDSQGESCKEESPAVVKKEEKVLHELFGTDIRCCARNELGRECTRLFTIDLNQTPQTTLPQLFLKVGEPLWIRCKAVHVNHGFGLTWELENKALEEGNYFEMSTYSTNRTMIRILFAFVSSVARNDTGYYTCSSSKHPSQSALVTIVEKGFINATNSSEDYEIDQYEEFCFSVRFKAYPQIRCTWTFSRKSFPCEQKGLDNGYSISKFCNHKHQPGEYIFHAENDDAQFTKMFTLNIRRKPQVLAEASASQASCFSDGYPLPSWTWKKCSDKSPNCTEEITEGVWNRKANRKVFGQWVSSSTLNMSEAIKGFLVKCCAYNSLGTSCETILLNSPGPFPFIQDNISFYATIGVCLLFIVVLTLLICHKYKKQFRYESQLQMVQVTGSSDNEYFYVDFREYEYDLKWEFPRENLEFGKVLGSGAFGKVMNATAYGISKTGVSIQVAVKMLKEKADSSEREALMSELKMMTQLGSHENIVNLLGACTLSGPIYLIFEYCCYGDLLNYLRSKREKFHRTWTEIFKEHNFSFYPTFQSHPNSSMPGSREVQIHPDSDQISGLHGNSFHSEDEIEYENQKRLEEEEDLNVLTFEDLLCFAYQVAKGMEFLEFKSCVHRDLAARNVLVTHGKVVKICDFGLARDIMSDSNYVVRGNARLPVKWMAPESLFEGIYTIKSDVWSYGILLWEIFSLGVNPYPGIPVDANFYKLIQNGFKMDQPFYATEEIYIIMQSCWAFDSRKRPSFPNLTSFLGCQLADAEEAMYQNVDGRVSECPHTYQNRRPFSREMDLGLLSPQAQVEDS
The test can be described thus: SelectScreen kinase profiling at ATP Km, with dose-response follow-up. It counts as biochemical.

What is called IC50 is the concentration that gives 50% inhibition. Low readings indicate higher potency, high ones lower potency. In the case of `Cc1cc(NCCCN(C)C)nc(NC(=O)Nc2ccc(Cl)c(Cl)c2)n1` [CT-179], in test [1], the “% inhibition at 1 μM” value is on record as 87. In addition, the IC50 in test [2] worked out at 1250 nM; in test [3], 20 nM.
